For 18 compounds, IC50 and solubility results are on record in patent US5585382A, “Polycyclic and heterocyclic chromophores for bis-imide tumoricidals” (The DuPont Merck Pharmaceutical Company, priority 1995, dated 1996).

Structures are written as SMILES. Values after ≈ are worked out from the molar mass of the structure shown. Like-named read-outs stand apart in the source and are kept apart here.

The subject of data set [1] is Clone A human colon cancer cells. The experiment in a line: In vitro growth inhibition of Clone A cells (MTT, 72 hr). The class given is cell-based. The following applies: read-out: Clone A IC50. How it is done:
(§1) The reagents for tissue culture were purchased from GIBCO (Grand Island, N.Y.). 5-Dimethylthiazol-2-yl)-2,5-diphenyl tetrazolium bromide (MTT) was purchased from Sigma Chemical Company (St. Louis, Mo.). All agents were prepared as 2 mg/ml stock solutions in DMSO. MTT was prepared as a 1 mg/ml stock solution in Dulbecco's phosphate buffered saline (PBS). All stocks were stored frozen in the dark at -20° C.
(§2) Clone A human colon cancer cells were isolated from the heterogeneous DLD-1 colon tumor line and maintained as previously described (Dexter, D. L.; Barbosa, J. A.; Calabresi, P. Cancer Research 1979, 39, 1020; Dexter, D. L.; Spremulli, E. M.; Fligiel, A.; Barbosa, J. A.; Vogel, R.; Van Vorhees, A.; Calabresi, P. Am. J. Med. 1981, 71, 949.). Murine leukemia L1210 cells were maintained in RPMI-L medium as described (Chen, S.-F.; Ruben, R. L.; Dexter, D. L. Cancer Research 1986, 46, 5014.). All cell lines were incubated at 37° C. in a humidified atmosphere of 5% CO2 -95% air.
(§3) Exponentially growing L1210 cells (1×10^3), or Clone A cells (8×10^2) in 0.1 ml medium were seeded in a 96-well microtiter plate on day 0. On day one, 0.1 ml aliquots of medium containing graded concentrations of test compounds were added to the cell plates. After incubation at 37° C. in a humidified incubator for 72 hr, the plates containing L1210 cells were centrifuged briefly and 100 μl of the growth medium was removed. Cell cultures were incubated with 50 μl of MTT for 4 h at 37° C. (12). The resulting purple formazan precipitate was solubilized with 200 μl of 0.04 N HCl in isopropyl alcohol. Absorbance was read in a Titertek Multiskan MCC scanning well spectrophotometer (Flow Laboratories) at a test wavelength of 570 nm and a reference wavelength of 630 nm. The absorbances were stored on a floppy disk on an IBM-XT and uploaded onto a VAX computer. IC50 values were determined by a computer program that fit the data to the following equation:
(§4) Y=((Am -Ao)/(1+(X/IC50)^n))+Ao
(§5) where Am =absorbance of the control cells; Ao =absorbance of the cells in the presence of highest compound concentration; Y=observed absorbance; X=compound concentration; IC50 =dose of compound that inhibits the number of population doublings of cells to one half that of the number of population doublings of the control cells; and n equals the slope of the straight portion of the curve.
(§6) The values reported in the table are from at least one experiment performed in eight replicates. If more than one experiment was performed, the number reported is the average of all the trials

In data set [2] the test system is Murine leukemia L1210 cells. The experiment in a line: In vitro growth inhibition of L1210 cells (MTT, 72 hr). The class given is cell-based. The settings on record: Mus musculus, read-out: L1210 IC50. The procedure: as §1, §2, §3, §4, §5, §6

As usually defined, the IC50 is the concentration needed to halve the response being measured. In general, solubility refers to the concentration that dissolves in the medium under given conditions. A higher solubility goes with a readily soluble substance.

For the compound `CC[C@H](CNCCNC[C@@H](CC)N1C(=O)c2cc([N+](=O)[O-])cc3c2c(cc2cc(C)cnc23)C1=O)N1C(=O)c2cc([N+](=O)[O-])cc3c2c(cc2cc(C)cnc23)C1=O` [Example 24], the IC50 worked out at 0.022 µg/mL (≈ 0.0281 µM) in data set [1] (Clone A cells, 72 hr, MTT) and 0.13 µg/mL (≈ 0.166 µM) in data set [2] (L1210 cells, 72 hr, MTT). Moreover, in the data set “Solubility in water”, the concentration in solution (solubility) came to 150 µg/mL (≈ 192 µM).
As to `C[C@H](CNCCNC[C@@H](C)N1C(=O)c2cc([N+](=O)[O-])cc3c2c(cc2cccnc23)C1=O)N1C(=O)c2cccc3cc([N+](=O)[O-])cc(c23)C1=O` [Example 123], in data set [2] (L1210 cells, 72 hr, MTT), the IC50 was determined as 0.013 µg/mL (≈ 0.0192 µM). This compound also displayed a solubility in the data set “Solubility in water” of 5770 µg/mL (≈ 8540 µM).
As for `CS(=O)(=O)O.Cc1cnc2c(c1)cc1c3c(cc([N+](=O)[O-])cc32)C(=O)N(CCCCNCCCN2C(=O)c3cc([N+](=O)[O-])cc4c3c(cc3cc(C)cnc34)C2=O)C1=O` [Example 12, 4-[3-(3-Nitro-7-methyl-5-azaphenanthrene-1, 10-dicarboximido)propylamino]-1-(3-nitro-7-methyl-5-azaphenanthrene-1, 10-dicarboximido)butane Hydromethanesulfonate], the IC50 in data set [1] (72 h) came to 0.009 µg/mL; in data set [2] (L1210, 72 h), 0.027 µg/mL. For the same compound, the solubility in the data set “Solubility in water” came out at 50 µg/mL.
`O=C1c2cccc3c2c(cc2cnccc23)C(=O)N1CCCCNCCCN1C(=O)c2cccc3c2c(cc2cnccc23)C1=O` [Example 15, 4-[3-(7-Azaphenanthrene-1,10-dicarboximido)propylamino]-1-(7-azaphenanthrene-1,10dicarboximido) butane 2.5-Hydromethanesulfonate]: the half-inhibitory concentration (IC50) in data set [1] (Clone A cells, 72 hr, MTT) came to 0.002 µg/mL (≈ 0.00329 µM); in data set [2] (L1210 cells, 72 hr, MTT), 0.002 µg/mL (≈ 0.00329 µM). In the data set “Solubility in water”, this compound showed a solubility of 810 µg/mL (≈ 1330 µM).
On to `CS(=O)(=O)O.CS(=O)(=O)O.CS(=O)(=O)O.O=C1c2cccc3c2c(cc2ccncc23)C(=O)N1CCCCNCCCN1C(=O)c2cccc3c2c(cc2ccncc23)C1=O` [Example 14, 4-[3-(6-Azaphenanthrene-1,10-dicarboximido)propylamino]-1-(6-azaphenanthrene-1,10-dicarboximido) butane Trihydromethanesulfonate], for which the IC50 in data set [1] (Clone A cells, 72 hr, MTT) was 0.003 µg/mL; in data set [2] (L1210 cells, 72 hr, MTT) it was 0.008 µg/mL. In the data set “Solubility in water”, the solubility was found to be 900 µg/mL.
As for `CS(=O)(=O)O.O=C1c2cccc3c2c(cc2ccccc23)C(=O)N1CCCCNCCCN1C(=O)c2cccc3c2c(cc2ccccc23)C1=O` [Example 40, 4-[3-(Phenanthrene-1, 10-dicarboximido)propylamino]-1-(phenanthrene-1, 10-dicarboximido) butane Hydromethanesulfonate], the IC50 in data set [1] (72 h) amounted to 0.412 µg/mL; in data set [2] (L1210, 72 h), 0.098 µg/mL. Also, the solubility in “Solubility in water” was 60 µg/mL.
With `O=C1c2cccc3cc([N+](=O)[O-])cc(c23)C(=O)N1CCCCNCCCN1C(=O)c2cccc3c2c(cc2cccnc23)C1=O` [Example 124], the IC50 in data set [2] (L1210 cells, 72 hr, MTT) was determined as 0.011 µg/mL (≈ 0.0183 µM). Also, in “Solubility in water”, the concentration in solution (solubility) came to 290 µg/mL (≈ 482 µM).
`CS(=O)(=O)O.Cc1cccc2c1cc1c3c(cccc32)C(=O)N(CCCCNCCCN2C(=O)c3cccc4c3c(cc3c(C)cccc34)C2=O)C1=O` [Example 42, 4-[3-(8-Methylphenanthrene-1,10-dicarboximido)propylamino]-1-(8-methylphenanthrene-1, 10-dicarboximido)butane Hydromethanesulfonate]: the IC50 was determined as 0.271 µg/mL in data set [1] (72 h) and 0.137 µg/mL in data set [2] (L1210, 72 h). In “Solubility in water”, this compound gave a solubility of 60 µg/mL.
For the compound `CS(=O)(=O)O.O=C1c2cccc3c2c(cc2ccc(F)cc23)C(=O)N1CCCCNCCCN1C(=O)c2cccc3c2c(cc2ccc(F)cc23)C1=O` [Example 56, 4-[3-(6-Fluorophenanthrene-1,10-dicarboximido)propylamino]-1-(6-fluorophenanthrene-1,10-dicarboximido)butane Hydromethanesulfonate], the IC50 in data set [1] (72 h) turned out to be 0.222 µg/mL; in data set [2] (L1210, 72 h), 0.365 µg/mL. The compound also yielded a solubility in “Solubility in water” of 40 µg/mL.
With `CS(=O)(=O)O.O=C1c2cccc3c2c(cc2ccc(C(F)(F)F)cc23)C(=O)N1CCCCNCCCN1C(=O)c2cccc3c2c(cc2ccc(C(F)(F)F)cc23)C1=O` [Example 44, 4-(3-[6-(Trifluoromethyl)phenanthrene-1,10-dicarboximido]propylamino)-1-[6-(trifluoromethyl)phenanthrene-1, 10dicarboximido]butane Hydromethanesulfonate], the IC50 in data set [1] (72 h) is 1.01 µg/mL; in data set [2] (L1210, 72 h) it was 0.888 µg/mL. Moreover, in the data set “Solubility in water”, the solubility was 270 µg/mL.
Regarding `CS(=O)(=O)O.Cc1c2c3c(cccc3c3ccccc13)C(=O)N(CCCCNCCCN1C(=O)c3cccc4c3c(c(C)c3ccccc34)C1=O)C2=O` [Example 43, 4-[3-(9-Methylphenanthrene-1,10-dicarboximido)propylamino]-1-(9-methylphenanthrene-1, 10-dicarboximido)butane Hydromethanesulfonate], the IC50 worked out at 0.4 µg/mL in data set [1] (72 h) and 0.357 µg/mL in data set [2] (L1210, 72 h). The compound further gave a solubility in the data set “Solubility in water” of 40 µg/mL.
With `CS(=O)(=O)O.CS(=O)(=O)O.CS(=O)(=O)O.Nc1cc2c3c(cc4cccnc4c3c1)C(=O)N(CCCCNCCCN1C(=O)c3cc(N)cc4c3c(cc3cccnc34)C1=O)C2=O` [Example 9, 4-[3-(3-Amino-5-azaphenanthrene-1,10-dicarboximido)propylamino]-1-(3-amino-5-azaphenanthrene-1, 10-dicarboximido)butane Trihydromethanesulfonate], the IC50 stood at 0.166 µg/mL in data set [1] (Clone A cells, 72 hr, MTT) and 0.182 µg/mL in data set [2] (L1210 cells, 72 hr, MTT). In “Solubility in water”, the solubility stood at 11000 µg/mL.
Consider `CS(=O)(=O)O.Cc1ccc2c(C)c3c4c(cccc4c2c1)C(=O)N(CCCCNCCCN1C(=O)c2cccc4c2c(c(C)c2ccc(C)cc24)C1=O)C3=O` [Example 46, 4-[3-(6,9-Dimethylphenanthrene-1,10-dicarboximido)propylamino]-1-(6,9-dimethylphenanthrene-1, 10-dicarboximido)butane Hydromethanesulfonate], for which the IC50 in data set [1] (72 h) came out at 0.958 µg/mL; in data set [2] (L1210, 72 h) it was 0.414 µg/mL. This compound also came in with a solubility in the data set “Solubility in water” of 40 µg/mL.
Regarding `C[C@H](CNCCNC[C@@H](C)N1C(=O)c2cc([N+](=O)[O-])cc3c2c(cc2ccncc23)C1=O)N1C(=O)c2cccc3cc([N+](=O)[O-])cc(c23)C1=O` [Example 119, (R,R)-1-[3-Nitro-6-azaphenanthrene-1, 10-dicarboximido)propylamino]-2-[2-(3-nitronaphthalene-1,8-dicarboximido)propylamino]ethane Dihydromethanesulfonate], the IC50 in data set [1] (72 h) amounted to 0.003 µg/mL; in data set [2] (L1210, 72 h) it was 0.044 µg/mL.
Consider `C[C@H](CNCCNC[C@@H](C)N1C(=O)c2cccc3c2c(cc2ccc(F)cc23)C1=O)N1C(=O)c2cccc3cc([N+](=O)[O-])cc(c23)C1=O` [Example 120], for which the IC50 is 0.013 µg/mL (≈ 0.0201 µM) in data set [1] (72 h) and 0.261 µg/mL (≈ 0.403 µM) in data set [2] (L1210, 72 h).
The matching figures for `CS(=O)(=O)O.N#Cc1ccc2cc3c4c(cccc4c2c1)C(=O)N(CCCCNCCCN1C(=O)c2cccc4c2c(cc2ccc(C#N)cc24)C1=O)C3=O` [Example 49, 4-[3-(6-Cyanophenanthrene-1,10-dicarboximido)propylamino]-1-(6-cyanophenanthrene-1, 10-dicarboximido)butane Hydromethanesulfonate]: 0.007 µg/mL and 0.026 µg/mL.
As to `CS(=O)(=O)O.CS(=O)(=O)O.C[C@@H](CNCCNC[C@H](C)N1C(=O)c2cccc3c2c(cc2ccc([N+](=O)[O-])cc23)C1=O)N1C(=O)c2cccc3c2c(cc2ccc([N+](=O)[O-])cc23)C1=O` [Example 52, (S,S)-1,2-bis-[2-(6-Nitrophenanthrene-1,10-dicarboximido)propylamino]ethane Dihydromethanesulfonate], the IC50 in data set [1] (72 h) stood at 0.044 µg/mL; in data set [2] (L1210, 72 h), 0.082 µg/mL.
The matching figures for `CS(=O)(=O)O.CS(=O)(=O)O.CS(=O)(=O)O.Nc1cc2c3c(cc4ccccc4c3c1)C(=O)N(CCCCNCCCN1C(=O)c3cc(N)cc4c3c(cc3ccccc34)C1=O)C2=O` [Example 53, 4-[3-(3-Aminophenanthrene-1,10-dicarboximido)propylamino]-1-(3-aminophenanthrene-1,10-dicarboximido)butane Trihydromethanesulfonate]: 0.755 µg/mL and 0.453 µg/mL.
